Data published in ChEMBL document CHEMBL3988442, “University of Dundee, Small-Polar-MMV Screening Library” (2021).

What was measured:
[1] = microbe, parasite or virus in culture; details: Mycobacterium tuberculosis, 96 h, read-out: pIC50 (converted)
[2] = microbe, parasite or virus in culture; details: Mycobacterium tuberculosis, 72 h, read-out: pIC50 (converted)

Compound | IC50 [1] | IC50 [2]
NCc1cccc(S(=O)(=O)NCc2cccc(F)c2)c1 | > 501 µM | 232 µM
Cc1ccc(NC(=O)Cn2ccnc2)cc1 | 171 µM | 159 µM
O=C(c1cn(-c2ccccc2)nn1)N1CCOCC(O)C1 (centres undefined) | > 50.1 µM | > 50.1 µM
Cc1cnc(C(=O)NCCCc2ccccn2)cn1 | > 501 µM | 111 µM
CNc1cc(CN(C)Cc2cccs2)ccn1 | 276 µM | 276 µM
O=C(Nc1cccc(CO)n1)Nc1ccccc1Cl | > 501 µM | 246 µM
CN1CCCCC1CC(=O)NCc1ccc(C#N)cc1 (centres undefined) | > 501 µM | > 501 µM
COc1cc(Oc2cnc3ccccc3n2)ccc1CN1CCCC1 | 13 µM | 9.42 µM
CC(C)C(C)N(C)Cc1nnc(-c2ccco2)o1 (centres undefined) | > 50.1 µM | 1.38 µM
Cc1ccsc1[C@@H]1CCN(C(=O)CCOc2ccccc2)C[C@H]1O | > 50.1 µM | > 50.1 µM
CCNCC(O)COc1ccc(C)cc1OC (centres undefined) | 10.5 µM | 218 µM
Cc1nn(C)cc1S(=O)(=O)NCC(c1ccccc1)N1CCCCCC1 (centres undefined) | > 50.1 µM | > 50.1 µM
Cc1cccc(CN(CC(N)=O)Cc2ccccn2)c1 | > 501 µM | 194 µM
CN(CC1COc2ccccc2O1)C(=O)C1CCC1 (centres undefined) | 173 µM | 182 µM
COc1ccc(-c2nc(CN(C)Cc3nncn3C)c(C)o2)c(C)c1C | 10.1 µM | 42.9 µM
COc1cccc([C@@H]2C[C@H]2N)c1 | > 501 µM | 163 µM
CCOC(=O)c1cnc(N2CCNCC2)s1 | 240 µM | 256 µM
NCc1nc(C(F)F)no1 | > 501 µM | 289 µM
COC(=O)CCCNc1ccc2c(c1)OCCO2 | 467 µM | 140 µM
CCN(CCC(N)=O)Cc1cccc2c1OCO2 | 272 µM | 258 µM
CCc1nc(CNc2ccc(C#N)nc2)cs1 | 96.8 µM | 113 µM
Cc1cc(C(=O)NCc2csc(N(C)C)n2)c2ccc(C)c(C)c2n1 | 13.6 µM | 19 µM
CC(C)n1nnnc1SCCS(=O)(=O)c1ccccc1 | 164 µM | 82.8 µM
Fc1cc(Cl)cnc1N1CCCNCC1 | > 501 µM | 34.3 µM
c1ccc(OCCCOC2CNC2)cc1 | > 501 µM | 177 µM
Cc1ccc(CN2CC[C@H](c3nnc(COc4ccc(F)cc4)o3)C2)o1 | 37.2 µM | > 50.1 µM

Compound | IC50 [1] | IC50 [2]
O=C(NCC(O)C1CCCCC1)[C@@H](O)c1ccccc1 (some centres undefined) | 189 µM | 86.1 µM
CCC(N)c1cnn(CC)c1 (centres undefined) | > 501 µM | > 501 µM
COc1ccc(C(=O)NCCSc2cnn[nH]2)cc1F | > 501 µM | > 501 µM
CC(C)(C)Cc1nnc(NCc2ccsc2)o1 | 12.5 µM | > 50.1 µM
CNC(=O)NCCc1csc2ccccc12 | > 50.1 µM | > 50.1 µM
COc1ccc(NC(=O)c2ccc(S(N)(=O)=O)o2)cc1 | > 501 µM | > 501 µM
CCCNC(=O)c1ccc2snnc2c1 | 169 µM | 153 µM
CCCc1ccc(N2CCN(Cc3nc4ccccc4n3C)CC2)cc1 | > 50.1 µM | 26 µM
NCc1cccc(C(=O)NCc2ccco2)c1 | > 501 µM | > 501 µM
CCC(CO)NCc1ccc(-c2ccc(F)c(Cl)c2)o1 (centres undefined) | 13.2 µM | 35.4 µM
COCCn1nnc(-c2cccc(OC)c2)n1 | 42.2 µM | 43.7 µM
NCC(=O)N1CCCC(CCc2ccc(F)cc2F)C1 (centres undefined) | 310 µM | 137 µM
CNc1cc2c(nn1)CCN(C(=O)c1cccc3c1OCCO3)C2 | > 50.1 µM | > 50.1 µM
CC(Nc1ccc(F)cc1)C(=O)N1CCCC1 (centres undefined) | 68.6 µM | 106 µM
COc1cccc(N2CCC(N)C2)c1 (centres undefined) | 276 µM | 294 µM
COCC(=O)NCCc1cc(Cl)c2c(c1)OCCO2 | 176 µM | 216 µM
Cc1ccoc1C(=O)N(C)Cc1nc(C(C)C)no1 | 179 µM | > 501 µM
CCNC(=O)NCCOC(=O)c1cccc2cc[nH]c12 | > 501 µM | > 501 µM
COc1ncccc1CN(C)C(=O)c1ccccc1F | > 501 µM | > 501 µM
CC(C)c1ccc(O)c(C(=O)NC2CCN(c3ncccn3)CC2)c1 | 24.7 µM | 20.4 µM
COCC(=O)N1CCCN(Cc2cc(C(C)C)no2)CC1 | > 50.1 µM | > 50.1 µM
CC(C)c1nccn1C(C)C(=O)N1CCN(c2cnccn2)CC1 (centres undefined) | > 50.1 µM | > 50.1 µM
CCc1ccccc1OC1CN(C(=O)c2ccnc(OC)c2)C1 | 43.4 µM | 21.3 µM
CC(C)N1CC(C(=O)NCc2ccc(S(=O)(=O)N(C)C)cc2)CC1=O (centres undefined) | > 50.1 µM | > 50.1 µM
O=S(=O)(NC1CCCC1)c1cncc(Cl)c1 | > 501 µM | 226 µM
CN(C)c1ncnc2c1CCN(C(=O)CN1CCCCC1)C2 | > 50.1 µM | > 50.1 µM

Compound | IC50 [1] | IC50 [2]
O=C(CSc1ncnn1-c1ccccc1)N1CCCC1 | 101 µM | 200 µM
Cc1ccc(C(N)c2ccccn2)cc1 (centres undefined) | 191 µM | 90.7 µM
COc1ccc(F)cc1C(=O)OCC(=O)NC1CC1 | 212 µM | 105 µM
CCCSc1ccc(NC(=O)NCCN)cc1 | 233 µM | 187 µM
COCCCNC(=O)c1ccn(-c2ccc(F)cc2)n1 | 154 µM | 114 µM
CC(Nc1ccc2c(c1)CCC2)c1nc(C2CC2)no1 (centres undefined) | 0.183 µM | 0.704 µM
Cc1ccnc(NCCS(=O)(=O)NCC2CCC2)c1 | 117 µM | 265 µM
CC(C)c1cccc(CN[C@H](CO)C(C)C)n1 | > 501 µM | 303 µM
COC(=O)CSCc1nc(-c2ccc(Cl)cc2)no1 | > 50.1 µM | > 50.1 µM
CC(C)OCCS(=O)(=O)N(C)Cc1ccco1 | 104 µM | 110 µM
COCC(C)Oc1cc(C)ccc1CN (centres undefined) | 228 µM | 149 µM
CN(C)S(=O)(=O)N1CCCC1c1ccsc1 (centres undefined) | > 501 µM | 277 µM
Cc1cc(Br)cc2cc(C(=O)NC(C)(CO)CO)oc12 | 285 µM | 369 µM
COCCCOC1CN(C(=O)c2ccc(Cl)cn2)C1 | 84.6 µM | 2.73 µM
Cn1c2c(c(=O)n1C)CN(C(=O)c1ccco1)CCC2 | > 50.1 µM | > 50.1 µM
Cn1nc(C2CCCN(Cc3cc(F)ccc3F)C2)c2nccnc21 (centres undefined) | > 50.1 µM | > 50.1 µM
CCn1ccc(C(=O)NCc2ccco2)n1 | > 501 µM | 232 µM
Clc1ccc(N2CCN(Cc3ncc[nH]3)CC2)nc1 | > 501 µM | 311 µM
COC(=O)CNc1ccccc1 | 123 µM | 463 µM
C=C(C)COc1c(Cl)cc(C(N)=O)cc1OC | 295 µM | 223 µM
COCc1ccc(CNc2cnn(C(C)(C)C)c(=O)c2Cl)cc1 | 15.3 µM | > 50.1 µM
CCOc1cccc(CSc2nc(=O)ccn2CC)n1 | > 501 µM | 460 µM
COCCOCCn1nc(C)c(C#N)c1N | > 501 µM | > 501 µM
CC(Cn1c(=O)[nH]c2ccccc2c1=O)N1CCCC1 (centres undefined) | 111 µM | 63.1 µM
NC(=O)NC(=O)CCN1CCCN(c2nccs2)CC1 | 25.1 µM | 35.5 µM
